Columns and labels:
[1] = tested on: Kunming male mice; assay: Acute toxicity in vivo; conditions: n = 6
[2] = tested on: HCT116 cells; conditions: 0.5, 1 and 2 μM, 24 h
[3] = tested on: human breast cancer MCF-7 xenograft; assay: In vivo antitumor efficiency, MCF-7 xenograft; conditions: MCF-7 xenograft nude mice; 5, 10, 20 mg/kg ip daily
[4] = tested on: human colon cancer HCT116 xenograft; assay: In vivo antitumor efficiency, HCT116 xenograft; conditions: HCT116 xenograft nude mice; 5, 10, 20 mg/kg ip daily
[5] = tested on: γH2AX foci; assay: γH2AX foci immunofluorescence in HCT116 cells; assay type: cell-based, human; conditions: 1 μM, 3 h
[6] = biological target: T1, TOP1-DNA covalent cleavage complexes (TOP1cc) (Homo sapiens, UniProt P11387); assay: Immunocomplex of enzyme to DNA; conditions: HCT116 cells; for Induction of cellular TOP1cc: 1 h, CPT 25 and 50 μM, 12 at 25, 50 and 100 μM
T1 sequence (P11387 2-765 limits assumed): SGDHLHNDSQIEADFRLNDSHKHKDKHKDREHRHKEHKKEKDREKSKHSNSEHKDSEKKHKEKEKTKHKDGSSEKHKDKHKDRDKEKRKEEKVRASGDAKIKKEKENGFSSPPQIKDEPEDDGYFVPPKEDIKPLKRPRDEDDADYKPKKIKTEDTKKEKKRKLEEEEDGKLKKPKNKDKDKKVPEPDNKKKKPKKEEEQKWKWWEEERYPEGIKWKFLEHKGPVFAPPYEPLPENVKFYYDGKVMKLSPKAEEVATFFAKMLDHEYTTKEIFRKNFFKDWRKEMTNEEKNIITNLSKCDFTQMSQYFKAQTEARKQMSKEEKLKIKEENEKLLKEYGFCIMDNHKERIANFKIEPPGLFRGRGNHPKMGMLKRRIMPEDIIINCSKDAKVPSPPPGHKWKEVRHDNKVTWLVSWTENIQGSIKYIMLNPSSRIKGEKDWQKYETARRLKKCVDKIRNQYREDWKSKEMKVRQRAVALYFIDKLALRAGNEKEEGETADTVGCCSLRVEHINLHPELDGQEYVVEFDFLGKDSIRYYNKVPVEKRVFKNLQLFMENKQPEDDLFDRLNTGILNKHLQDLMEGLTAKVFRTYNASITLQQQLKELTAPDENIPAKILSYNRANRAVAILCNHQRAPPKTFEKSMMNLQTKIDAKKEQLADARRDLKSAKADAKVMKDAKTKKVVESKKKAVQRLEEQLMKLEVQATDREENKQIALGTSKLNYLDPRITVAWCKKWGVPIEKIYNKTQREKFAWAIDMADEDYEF

[7] = tested on: A549 cells; assay: cells; conditions: Homo sapiens, A549, 72 h, read-out: GI50 ± SD

## CNCCn1c(=O)c2cc(OC)c(OC)cc2c2ccc3cc4c(cc3c21)OCO4 [Compound 12, 2,3-Dimethoxy-12-(2-(methylamino)ethyl)-[1,3]dioxolo[4’,5’:4,5]benzo[1,2-c]phenanthridin-13(12H)-one]
[1]; 122.9 mg/kg single ip dose, 7 days
  mice survival: all mice survived
[1]; 153.6 mg/kg single ip dose, 7 days
  mice survival: four mice survived
[1]; 192 mg/kg single ip dose, 7 days
  mice survival: three mice survived
[1]; 240 mg/kg single ip dose, 7 days
  mice survival: two mice survived
[1]; 300 mg/kg single ip dose
  mice survival: All mice died within 5 days
[2]
  Induction of apoptosis: induce HCT116 cells apoptosis in a dose-dependent manner
[3]
  tumor volume: significantly reduced the tumor volume in a dose-dependent manner
[4]
  tumor volume: significantly reduced the tumor volume in a dose-dependent manner
[5]
  Induction of γH2AX foci (DNA damage): effectively induces γH2AX foci
[6]; 25 μM
  Induction of cellular TOP1cc compared with CPT: higher ability to induce cellular TOP1cc at 25 μM than CPT
[6]
  Induction of cellular TOP1cc: induce the formation of cellular TOP1cc in a dose-dependent manner

## CC[C@@]1(O)C(=O)OCc2c1cc1n(c2=O)Cc2cc3ccccc3nc2-1 [CPT, camptothecin, reference compound]
[7]
  GI50: 99 ± 17 nM
[6]
  Induction of cellular TOP1cc: induce the formation of cellular TOP1cc in a dose-dependent manner
